Experimental data from US20260042764A1, “COMPOSITIONS AND METHODS FOR INHIBITION OF KRAS” (TheRas, Inc., priority 2022, published 2026).

Assays:
[1] = biological target: T1, Avi-KRAS G12D (1-169) GppNHp/RAF1 RBD-3xFLAG (52-151) (Homo sapiens, UniProt P01116, G12D); test: Raf1-KRAS G12D-GppNHP disruption HTRF assay (Biological Example 1); format: binding
T1 construct: Avi-KRAS G12D (1-169)
Procedure, shortened: (§1)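 Read-out is HTRF signal of the KRAS–RAF1 RBD complex, reported as percentage of activity relative to DMSO (100%). Protein mix and detection reagents each incubated 1 h at room temperature with 700 rpm shaking. Buffer: 50 mM Tris pH 7.5, 100 mM NaCl, 5 mM MgCl2, 0.1% BSA, 0.01% Tween, 10% DMSO.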

[2] = biological target: T2, Avi-KRAS G12R (1-169) GppNHp/RAF1 RBD-3xFLAG (52-151) (Homo sapiens, UniProt P01116, G12R); test: Raf1-KRAS G12R-GppNHP disruption HTRF assay (Biological Example 1); format: binding
T2 construct: Avi-KRAS G12R (1-169)
Procedure, shortened: as §1

[3] = biological target: T3, Avi-KRAS G12V (1-169) GppNHp/RAF1 RBD-3xFLAG (52-151) (Homo sapiens, UniProt P01116, G12V); test: Raf1-KRAS G12V-GppNHP disruption HTRF assay (Biological Example 1); format: binding
T3 construct: Avi-KRAS G12V (1-169)
Procedure, shortened: as §1

[4] = biological target: T4, Avi-KRAS WT (1-169) GppNHp/RAF1 RBD-3xFLAG (52-151) (Homo sapiens, UniProt P01116); test: Raf1-KRAS WT-GppNHP disruption HTRF assay (Biological Example 1); format: binding
T4 construct: Avi-KRAS WT (1-169)
Procedure, shortened: as §1

GP2d cells (KRAS G12D) = test: Cell-based pERK HTRF assay in GP2d cell (Biological Example 2); conditions: GP2d (KRAS G12D) cells, pERK HTRF
Procedure, shortened: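 Phospho-ERK in lysed cells was detected by HTRF using Eu cryptate and d2 antibodies, read between 4 and 24 h at room temperature. Prior to lysis, KRAS G12D GP2d cells, seeded the day before in DMEM with 10% FBS, were exposed to compounds for 60 min. Compounds were tested as 9-point half-log curves from 1 μM or 100 nM top, with 0.25% DMSO.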

SW620 cells (KRAS G12V) = test: Cell-based pERK HTRF assay in SW620 cell (Biological Example 4); conditions: pERK HTRF
Procedure, shortened: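 SW620 (KRAS G12V) cells seeded at 3×10^4/well in RPMI, 10% FBS, then treated next day for 4 h with a 9-point half-log series from 1 μM top (0.25% DMSO). Lysates analyzed for pERK by HTRF (Eu cryptate/d2 antibodies, 4–24 h at room temperature), excitation 320 nm, emission 615 nm.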

[5] = KRAS G12D, GppNHp-loaded, class symbols
[6] = KRAS G12R, GppNHp-loaded, class symbols
[7] = KRAS G12V, GppNHp-loaded, class symbols
[8] = KRAS WT, GppNHp-loaded, class symbols
[9] = Homo sapiens, SW-620, SW620 (KRAS G12V) cells, class symbols
[10] = Homo sapiens, SW-620, SW620 (KRAS G12V) cells

T3 sequence (P01116 1-169 isoform P01116-2 G12V): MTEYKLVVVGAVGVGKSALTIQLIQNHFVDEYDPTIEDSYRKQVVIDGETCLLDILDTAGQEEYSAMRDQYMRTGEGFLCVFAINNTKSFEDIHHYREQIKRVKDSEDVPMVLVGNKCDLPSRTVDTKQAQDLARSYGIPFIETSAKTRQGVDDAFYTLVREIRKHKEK
T2 sequence (P01116 1-169 isoform P01116-2 G12R): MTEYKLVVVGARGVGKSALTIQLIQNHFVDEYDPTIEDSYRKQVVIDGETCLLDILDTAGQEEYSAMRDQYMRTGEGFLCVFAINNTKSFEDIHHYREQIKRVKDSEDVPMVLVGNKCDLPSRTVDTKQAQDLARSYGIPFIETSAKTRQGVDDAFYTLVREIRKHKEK
T1 sequence (P01116 1-169 isoform P01116-2 G12D): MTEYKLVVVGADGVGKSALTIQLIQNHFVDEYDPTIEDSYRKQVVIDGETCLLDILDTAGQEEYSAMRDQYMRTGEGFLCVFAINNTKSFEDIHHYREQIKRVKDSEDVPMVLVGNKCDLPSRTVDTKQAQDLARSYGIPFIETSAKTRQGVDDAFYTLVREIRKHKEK
T4 sequence (P01116 1-169 isoform P01116-2): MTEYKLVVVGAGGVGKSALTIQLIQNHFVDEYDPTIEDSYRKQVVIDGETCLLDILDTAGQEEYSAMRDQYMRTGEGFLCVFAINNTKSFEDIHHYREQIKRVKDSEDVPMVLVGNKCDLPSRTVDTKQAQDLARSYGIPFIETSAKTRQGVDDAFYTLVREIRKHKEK

Q: Which IC50 ([1]; KRAS G12D-GppNHp/RAF1 RBD HTRF) does the source give for `CCN(c1nc(OC[C@@]23CCCN2C[C@H](F)C3)nc2c(F)c(-c3ccc(F)c4sc(N)c(C#N)c34)c(C(F)(F)F)cc12)[C@H]1CCS(=O)(=O)C1` (atropisomer, axis not shown) [Compound 491] here?
A: 1000 to 10000 nM

Q: What about the IC50 ([2]; KRAS G12R-GppNHp/RAF1 RBD HTRF) of the same molecule?
A: > 10000 nM

Q: And the IC50 ([3]; KRAS G12V-GppNHp/RAF1 RBD HTRF)?
A: > 10000 nM

Q: What about the IC50 ([4]; KRAS WT-GppNHp/RAF1 RBD HTRF) of the same molecule?
A: 1000 to 10000 nM

Q: What about the IC50 (GP2d cells (KRAS G12D)) of the same molecule?
A: 100 to 1000 nM

Q: What about the IC50 (SW620 cells (KRAS G12V); SW620 (KRAS G12V) cells) of the same molecule?
A: 100 to 1000 nM

Q: How did the IC50 [1, 5] turn out when `C=C(F)C(=O)N1CC[C@H](N(CC)c2nc(OC[C@@]34CCCN3C[C@H](F)C4)nc3c(F)c(-c4ccc(F)c5sc(N)c(C#N)c45)c(C(F)(F)F)cc23)C1` (atropisomer, axis not shown) [Compound 676] was run?
A: < 100 nM

Q: What about the IC50 [2, 6] of the same molecule?
A: < 100 nM

Q: What about the IC50 [3, 7] of the same molecule?
A: < 100 nM

Q: What about the IC50 [4, 8] of the same molecule?
A: < 100 nM

Q: What about the IC50 (GP2d cells (KRAS G12D); GP2d, class symbols) of the same molecule?
A: < 100 nM

Q: What about the IC50 (SW620 cells (KRAS G12V); [9]) of the same molecule?
A: < 100 nM

Q: Which IC50 ([1]; KRAS G12D-GppNHp/RAF1 RBD HTRF) does the source give for `N#Cc1c(N)sc2c(F)ccc(-c3c(C(F)(F)F)cc4c(N5CC6CC(C5)O6)nc(OC[C@@]56CCCN5C[C@]5(CC5(F)F)C6)nc4c3F)c12` [Compound 365] here?
A: 100 to 1000 nM

Q: And the IC50 ([2]; KRAS G12R-GppNHp/RAF1 RBD HTRF)?
A: 100 to 1000 nM

Q: What about the IC50 ([3]; KRAS G12V-GppNHp/RAF1 RBD HTRF) of the same molecule?
A: 100 to 1000 nM

Q: What about the IC50 ([4]; KRAS WT-GppNHp/RAF1 RBD HTRF) of the same molecule?
A: 100 to 1000 nM

Q: And the IC50 (GP2d cells (KRAS G12D); GP2d)?
A: < 100 nM

Q: And the IC50 (SW620 cells (KRAS G12V); [10])?
A: < 100 nM

Q: With `N#Cc1c(N)sc2c(F)ccc(-c3c(C(F)(F)F)cc4c(N5CC6OCC5C6F)nc(OC[C@@]56CCCN5C[C@H](F)C6)nc4c3F)c12` (stereo partly drawn) [Compound 531] as the molecule, how does the IC50 ([1]; KRAS G12D-GppNHp/RAF1 RBD HTRF) read?
A: 100 to 1000 nM

Q: And the IC50 ([2]; KRAS G12R-GppNHp/RAF1 RBD HTRF)?
A: 100 to 1000 nM

Q: What about the IC50 ([3]; KRAS G12V-GppNHp/RAF1 RBD HTRF) of the same molecule?
A: 100 to 1000 nM

Q: What about the IC50 ([4]; KRAS WT-GppNHp/RAF1 RBD HTRF) of the same molecule?
A: 100 to 1000 nM

Q: And the IC50 (GP2d cells (KRAS G12D); GP2d)?
A: < 100 nM

Q: And the IC50 (SW620 cells (KRAS G12V); [10])?
A: < 100 nM

Q: `C[C@@]1(O)CCCN(c2nc(OC[C@@]34CCCN3C[C@H](F)C4)nc3c(F)c(-c4ccc(F)c5sc(N)c(C#N)c45)c(C(F)(F)F)cc23)C1` [Compound 224] was tested. Which IC50 ([1]; KRAS G12D, GppNHp-loaded, Table 11) did it give?
A: 100 to 1000 nM

Q: What about the IC50 ([2]; KRAS G12R, GppNHp-loaded, Table 11) of the same molecule?
A: 100 to 1000 nM

Q: And the IC50 ([3]; KRAS G12V, GppNHp-loaded, Table 11)?
A: 100 to 1000 nM

Q: What about the IC50 ([4]; KRAS WT, GppNHp-loaded, Table 11) of the same molecule?
A: 100 to 1000 nM

Q: What about the IC50 (GP2d cells (KRAS G12D); GP2d) of the same molecule?
A: < 100 nM

Q: What about the IC50 (SW620 cells (KRAS G12V); [10]) of the same molecule?
A: < 100 nM

Q: Which results are given for `CCN1C[C@H](N(CC)c2nc(OC[C@@]34CCCN3C[C@H](F)C4)nc3c(F)c(-c4ccc(F)c5sc(N)c(C#N)c45)c(C(F)(F)F)cc23)CC1=O` (atropisomer, axis not shown) [Compound 699]?
A: IC50 [1, 5]: 100 to 1000 nM; IC50 [2, 6]: 100 to 1000 nM; IC50 [3, 7]: 100 to 1000 nM; IC50 [4, 8]: 100 to 1000 nM; IC50 (GP2d cells (KRAS G12D); GP2d, class symbols): < 100 nM; IC50 (SW620 cells (KRAS G12V); [9]): < 100 nM

Q: Which results are given for `CC#CC(=O)N1CC[C@H](N(CC)c2nc(OC[C@@]34CCCN3C[C@H](F)C4)nc3c(F)c(-c4ccc(F)c5sc(N)c(C#N)c45)c(C(F)(F)F)cc23)C1` (atropisomer, axis not shown) [Compound 679]?
A: IC50 [1, 5]: < 100 nM; IC50 [2, 6]: < 100 nM; IC50 [3, 7]: < 100 nM; IC50 [4, 8]: < 100 nM; IC50 (GP2d cells (KRAS G12D); GP2d, class symbols): < 100 nM; IC50 (SW620 cells (KRAS G12V); [9]): < 100 nM

Q: Which results are given for `N#Cc1c(N)sc2c(F)ccc(-c3c(C(F)(F)F)cc4c(N5C[C@H]6C[C@@H]5CS6(=O)=O)nc(OC[C@@]56CCCN5C[C@H](F)C6)nc4c3F)c12` [Compound 322]?
A: IC50 ([1]; KRAS G12D-GppNHp/RAF1 RBD HTRF): 100 to 1000 nM; IC50 ([2]; KRAS G12R-GppNHp/RAF1 RBD HTRF): 100 to 1000 nM; IC50 ([3]; KRAS G12V-GppNHp/RAF1 RBD HTRF): 1000 to 10000 nM; IC50 ([4]; KRAS WT-GppNHp/RAF1 RBD HTRF): 100 to 1000 nM; IC50 (GP2d cells (KRAS G12D); GP2d): < 100 nM; IC50 (SW620 cells (KRAS G12V); [10]): 100 to 1000 nM

Q: Which results are given for `N#Cc1c(N)sc2c(F)ccc(-c3c(C(F)(F)F)cc4c(N5CCS(=N)(=O)CC5)nc(OC[C@@]56CCCN5C[C@H](F)C6)nc4c3F)c12` [Compound 297]?
A: IC50 ([1]; KRAS G12D-GppNHp/RAF1 RBD HTRF): 100 to 1000 nM; IC50 ([2]; KRAS G12R-GppNHp/RAF1 RBD HTRF): 100 to 1000 nM; IC50 ([3]; KRAS G12V-GppNHp/RAF1 RBD HTRF): 100 to 1000 nM; IC50 ([4]; KRAS WT-GppNHp/RAF1 RBD HTRF): 100 to 1000 nM; IC50 (GP2d cells (KRAS G12D); GP2d): < 100 nM; IC50 (SW620 cells (KRAS G12V); [10]): < 100 nM

Q: How did the IC50 ([1]; KRAS G12D-GppNHp/RAF1 RBD HTRF) turn out when `CN(c1nc(OC[C@@]23CCCN2C[C@H](F)C3)nc2c(F)c(-c3ccc(F)c4sc(N)c(C#N)c34)c(C(F)(F)F)cc12)C1CCCS(=O)(=O)C1` (stereo partly drawn) [Compound 341] was run?
A: 100 to 1000 nM

Q: What about the IC50 ([2]; KRAS G12R-GppNHp/RAF1 RBD HTRF) of the same molecule?
A: 100 to 1000 nM

Q: And the IC50 ([3]; KRAS G12V-GppNHp/RAF1 RBD HTRF)?
A: 1000 to 10000 nM

Q: What about the IC50 ([4]; KRAS WT-GppNHp/RAF1 RBD HTRF) of the same molecule?
A: 100 to 1000 nM

Q: What about the IC50 (GP2d cells (KRAS G12D); GP2d) of the same molecule?
A: < 100 nM

Q: What about the IC50 (SW620 cells (KRAS G12V); [10]) of the same molecule?
A: 100 to 1000 nM

Q: For `CCN(c1nc(OC[C@@]23CCCN2C[C@H](F)C3)nc2c(F)c(-c3ccc(F)c4sc(N)c(C#N)c34)c(C(F)(F)F)cc12)[C@H]1C[C@@H](C)N(C(=O)N(C)C)C1` (atropisomer, axis not shown) [Compound 558], which IC50 ([1]; KRAS G12D-GppNHp/RAF1 RBD HTRF) is on record?
A: 100 to 1000 nM

Q: What about the IC50 ([2]; KRAS G12R-GppNHp/RAF1 RBD HTRF) of the same molecule?
A: 100 to 1000 nM

Q: What about the IC50 ([3]; KRAS G12V-GppNHp/RAF1 RBD HTRF) of the same molecule?
A: 100 to 1000 nM

Q: What about the IC50 ([4]; KRAS WT-GppNHp/RAF1 RBD HTRF) of the same molecule?
A: 100 to 1000 nM

Q: And the IC50 (GP2d cells (KRAS G12D); GP2d)?
A: < 100 nM

Q: What about the IC50 (SW620 cells (KRAS G12V); [10]) of the same molecule?
A: < 100 nM
